Where “and” joins values, the source holds several entries; their conditions need not be identical. Equal entries are not always repeated. Where only a bound is given, the exact number is not on record here.

The target in one data set is T1, mouse ERK-2 (Mus musculus, UniProt P63085).
T1 construct: purchased Upstate Biotechnologies
Kind of data set: ERK-2 kinase assay (MBP phosphorylation). It is filed as biochemical. The conditions noted are these: Table 2; read-out: Kinase inhibition ERK2 IC50. As to the method:
ERK-2 kinase activity was measured by the incorporation of radioactive phosphate into myelin basic protein (MBP), catalysed by purified mouse ERK-2 (Upstate Biotechnologies). The reaction mixture (total volume 50 μL) consisted of 20 mM MOPS, pH 7.0,25 mM β-glycerophosphate, 5 mM EGTA, 1 mM DTT, 1 mM Na3VO4, 10 mM MgCl2, 100 μM ATP, 0.2 μCi [γ-^32P]-ATP.

Data set [1] deals with T2, cyclic AMP-dependent kinase (PKA) catalytic subunit (Homo sapiens, UniProt P17612).
T2 construct: purchased Calbiochem 539487
Briefly: PKA kinase assay (Kemptide phosphorylation). It counts as biochemical. The conditions noted are these: Table 2; read-out: Kinase inhibition PKA IC50. As to the method:
The reaction mixture (total volume 50 μl) consisted of 20 mM MOPS, pH 7.2, 25 mM β-glycerophosphate, 5 mM EGTA, 1 mM DTT, 1 mM Na3VO4, 10 mM MgCl2, 100 μM ATP, 0.2 μCi [γ-^32P]-ATP.

Another data set has as its system A549, HT29, Saos-2. Briefly: In vitro anti-proliferative activity, 72-h MTT, A549, HT29, Saos-2. To be noted: read-out: In vitro anti-proliferative activity (72-h MTT IC50), Cell lines: A549, HT29, Saos-2. It counts as cell-based.
The target in a further data set is CDK7/cyclin H (Homo sapiens, UniProt P50613). Kind of data set: CDK7/cyclin H kinase inhibition. It is filed as biochemical. To be noted: Table 2.
Sequence of CDK7/cyclin H (P50613 whole entry, species assumed): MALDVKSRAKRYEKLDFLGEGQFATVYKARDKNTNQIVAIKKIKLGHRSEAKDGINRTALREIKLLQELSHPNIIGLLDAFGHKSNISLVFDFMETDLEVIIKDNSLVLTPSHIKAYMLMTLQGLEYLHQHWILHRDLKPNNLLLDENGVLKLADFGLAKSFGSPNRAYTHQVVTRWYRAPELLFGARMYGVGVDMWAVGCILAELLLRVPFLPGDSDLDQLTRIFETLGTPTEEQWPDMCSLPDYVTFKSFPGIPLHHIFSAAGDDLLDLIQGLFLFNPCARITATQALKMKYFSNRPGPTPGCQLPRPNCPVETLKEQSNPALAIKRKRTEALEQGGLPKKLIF
Sequence of CDK7/cyclin H (P51946 whole entry partner, species assumed): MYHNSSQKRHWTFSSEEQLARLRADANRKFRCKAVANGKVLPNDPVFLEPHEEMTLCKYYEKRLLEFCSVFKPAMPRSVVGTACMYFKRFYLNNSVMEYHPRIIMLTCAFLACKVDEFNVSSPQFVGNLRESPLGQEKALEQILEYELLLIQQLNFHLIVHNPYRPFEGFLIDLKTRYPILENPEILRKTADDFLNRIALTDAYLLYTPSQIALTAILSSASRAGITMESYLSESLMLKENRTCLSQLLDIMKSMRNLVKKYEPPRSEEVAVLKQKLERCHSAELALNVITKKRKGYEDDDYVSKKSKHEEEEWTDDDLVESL
The target of a further data set is CDK4/cyclin D1 (Homo sapiens, UniProt P11802). Kind of data set: CDK4/cyclin D1 kinase assay (GST-Rb phosphorylation). To be noted: Table 2; read-out: Kinase inhibition CDK4/cyclin D1 IC50. It counts as biochemical. The protocol: (§1) Assays for CDK2/cyclin E kinase, CDK1/cyclin B and CDK4/cyclin D1 may be carried out by monitoring phosphorylation of GST-Rb in an appropriate system. […] The phosphorylation reaction mixture (total volume 40 μl) consisted of 50 mM HEPES pH 7.4, 20 mM MgCl2, 5 mM EGTA, 2 mM DTT, 20 mM β-glycerophosphate, 2 mM NaF, 1 mM Na3VO4, Protease Inhibitors Cocktail (Sigma, see above), BSA 0.5 mg/ml, 1 μg purified enzyme complex, 10 μl of GST-Rb-Sepharose-beads, 100 μM ATP, 0.2 μCi ^32P-ATP. The reaction is carried out for 30 min at 30° C. at constant shaking. At the end of this period 100 μl of 50 mM HEPES, pH 7.4 and 1 mM ATP is added to each well and the total volume transferred onto GFC filtered plate. The plate is washed 5 times with 200 μl of 50 mM HEPES, pH 7.4 and 1 mM ATP. To each well was added 50 μl scintillant liquid and the radioactivity of the samples is measured on Scintilation counter (Topcount, HP). The IC50 values of different peptides were calculated using GraFit software.
Sequence of CDK4/cyclin D1 (P11802 whole entry, species assumed): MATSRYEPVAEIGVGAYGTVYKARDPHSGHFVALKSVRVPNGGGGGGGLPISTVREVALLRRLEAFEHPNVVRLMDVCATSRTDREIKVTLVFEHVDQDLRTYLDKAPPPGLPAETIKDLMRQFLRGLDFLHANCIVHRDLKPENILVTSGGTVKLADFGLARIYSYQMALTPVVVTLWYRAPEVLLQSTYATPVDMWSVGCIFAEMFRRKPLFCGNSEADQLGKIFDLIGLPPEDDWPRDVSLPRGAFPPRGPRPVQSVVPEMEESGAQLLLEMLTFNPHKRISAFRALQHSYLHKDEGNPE
Sequence of CDK4/cyclin D1 (P24385 whole entry partner, species assumed): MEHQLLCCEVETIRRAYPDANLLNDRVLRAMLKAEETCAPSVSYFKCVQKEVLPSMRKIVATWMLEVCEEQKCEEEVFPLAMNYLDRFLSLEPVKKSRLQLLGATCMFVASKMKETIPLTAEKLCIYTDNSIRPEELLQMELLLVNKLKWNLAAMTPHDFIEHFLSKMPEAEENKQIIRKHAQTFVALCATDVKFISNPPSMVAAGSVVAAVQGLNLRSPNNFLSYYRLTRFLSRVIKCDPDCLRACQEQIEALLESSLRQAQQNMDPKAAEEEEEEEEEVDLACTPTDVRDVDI

For another data set, the system named is A2780 CisR. Kind of data set: 72-h MTT proliferation assay, A2780 CisR. It is filed as cell-based. The conditions noted are these: Homo sapiens, A2780cisR, read-out: IC50 Cell line A2780 CisR. The text has this: (§2) Selected compounds from the above examples were subjected to a standard cellular proliferation assay using seven different human tumour cell lines: A2780, A278CisF, CH1, CH1DoxR, HCT116, HT29 and KM12. […] Human tumour cell lines were obtained from the ATCC (American Type Culture Collection, 10801 University Boulevard, Manessas, Va. 20110-2209, USA). The results are shown in Table 1, together with the average IC50 over the seven different cell lines.
On the technique in general: Formazan colour is commonly taken as a measure of viable cells.

Data set [2] concerns seven different human tumour cell lines: A2780, A278CisF, CH1, CH1DoxR, HCT116, HT29 and KM12. Kind of data set: 72-h MTT proliferation assay, average over seven cell lines. It is filed as cell-based. To be noted: read-out: IC50 Cell line Average. The text has this:
Selected compounds from the above examples were subjected to a standard cellular proliferation assay using seven different human tumour cell lines: A2780, A278CisF, CH1, CH1DoxR, HCT116, HT29 and KM12.

In another data set the target is T3, CDK2/cyclin E (Homo sapiens, UniProt P24941).
T3 construct: His; made in house; host or cells: Sf9 insect cells (baculovirus)
Briefly: CDK2/cyclin E kinase assay (GST-Rb phosphorylation). It counts as biochemical. To be noted: Table 1. The protocol: as §1
For use in said assay CDK2 may be obtained from available sources or produced by recombinant methods as described His-tagged CDK2/Cyclin E and CDK1/Cyclin B may be co-expressed in Sf 9 insect cells infected with the appropriate baculovirus constructs. The cells are harvested two days after infection by low speed centrifugation and the proteins purified from the insect cell pellets by Metal-chelate chromatography. Briefly, the insect cell pellet is lysed in Buffer A (10 mM Tris-HCl, pH 8.0, 150 mM NaCl, 0.02% NP40 and 5 mM, β-marcaptoethanol, 1 mM NaF. 1 mM Na3VO4 and Protease Inhibitors Coctail (Sigma) containing AEBSF, pepstatin A, E 64, bestatin, leupeptin) by sonication. The soluble fraction is cleared by centrifugation and loaded onto Ni-NTA-Agarose (Quiagen). Non bound proteins were washed off with 300 mM NaCl, 5-15 mM Imidazole in Buffer A and the bound proteins eluted with 250 mM Imidazole in Buffer A. The purified proteins are extensively dialyzed against Storage buffer (20 mM HEPES pH 7.4, 50 mM NaCl, 2 mM DTT, 1 mM EDTA, 1 mM EGTA, 0.02% NP40, 10% v/v Glycerol) aliquoted and stored at −70° C. PKC-α—6×His may be purified the same way but using different buffers—50 mM NaH2PO4, pH 8.0 and 0.05% Triton X-100 instead of Tris and NP40 respectively.

Another data set concerns HCT116. Kind of data set: 72-h MTT proliferation assay, HCT116. It is filed as cell-based. The conditions noted are these: Homo sapiens, HCT-116, read-out: IC50 Cell line HCT116.
Description: as §2

The next data set deals with CH1. Kind of data set: 72-h MTT proliferation assay, CH1. It is filed as cell-based. The conditions noted are these: Homo sapiens, read-out: IC50 Cell line CH1.
Description: as §2

A further data set relates to HT29. Briefly: 72-h MTT proliferation assay, HT29. It is filed as cell-based. The conditions noted are these: Homo sapiens, HT-29, read-out: IC50 Cell line HT29.
Description: as §2

Another data set can be described thus: in vivo. The conditions noted are these: mouse.
The next data set deals with CH1DoxR. Kind of data set: 72-h MTT proliferation assay, CH1DoxR. It is filed as cell-based. The conditions noted are these: Homo sapiens, read-out: IC50 Cell line CH1DoxR.
Description: as §2

A further data set relates to KM12. Briefly: 72-h MTT proliferation assay, KM12. It counts as cell-based. The conditions noted are these: Homo sapiens, read-out: IC50 Cell line KM12.
Description: as §2

Another data set deals with A2780. Briefly: 72-h MTT proliferation assay, A2780. It is filed as cell-based. To be noted: Homo sapiens, read-out: IC50 Cell line A2780.
Description: as §2

Data set [3] in a line: Metabolic carbinol-carboxyl oxidation. To be noted: remark in Table 1.

T1 sequence (P63085 whole entry): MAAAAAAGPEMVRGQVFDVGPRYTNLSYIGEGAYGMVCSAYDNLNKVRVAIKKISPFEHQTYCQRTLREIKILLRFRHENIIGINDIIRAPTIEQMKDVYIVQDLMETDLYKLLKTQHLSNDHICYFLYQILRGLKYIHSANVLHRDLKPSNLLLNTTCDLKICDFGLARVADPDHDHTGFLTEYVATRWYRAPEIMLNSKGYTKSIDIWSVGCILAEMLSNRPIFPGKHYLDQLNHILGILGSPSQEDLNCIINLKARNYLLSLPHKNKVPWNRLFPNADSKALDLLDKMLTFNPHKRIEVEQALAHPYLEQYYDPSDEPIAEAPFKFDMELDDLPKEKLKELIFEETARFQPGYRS

As to `CCC(O)[C@@H](CC)Nc1nc(NCc2ccccc2)c2ncn(C(C)C)c2n1` (mixture of isomers) [Example 9, (3RS,4R)-4-(6-Benzylamino-9-isopropyl-9H-purin-2-ylamino)-hexan-3-ol], the IC50 on mouse ERK-2 was found to be 103 µM; in data set [1], 139 µM; with A549, HT29, Saos-2, 11 µM; at CDK7/cyclin H it was 1.2 µM; at CDK4/cyclin D1, 34 µM.
Taken in the same sequence, the figures for `CC[C@@H](Nc1nc(NCc2ccccc2)c2ncn(C(C)C)c2n1)C(O)C(C)C` (mixture of isomers) [Example 11, (3RS,4R)-4-(6-Benzylamino-9-isopropyl-9H-purin-2-ylamino)-2-methyl-hexan-3-ol] were > 200 µM, 92 µM, 11 µM, 4.4 µM and 28 µM.
Taken in the same sequence, the figures for `CC[C@@H](Nc1nc(NCc2ccccc2)c2ncn(C(C)C)c2n1)C(O)C(C)(C)C` (mixture of isomers) [Example 13, (3RS,4R)-4-(6-Benzylamino-9-isopropyl-9H-purin-2-ylamino)-2,2-dimethyl-hexan-3-ol] were > 200 µM, 87 µM, 18 µM, 3.7 µM and > 200 µM.
As to `CC[C@H](Nc1nc(NCc2ccccc2)c2ncn(C(C)C)c2n1)C(O)C(C)(C)C` (mixture of isomers) [Example 14, (3RS,4S)-4-(6-Benzylamino-9-isopropyl-9H-purin-2-ylamino)-2,2-dimethyl-hexan-3-ol], the IC50 at mouse ERK-2 was > 200 µM; in [1], > 200 µM; with A549, HT29, Saos-2, 22 µM; against CDK7/cyclin H it was 4.3 µM; on CDK4/cyclin D1, 60 µM.
Usually AUC(0-inf) stands for total exposure, with the tail of the curve extrapolated. High values mean more exposure, low ones less exposure. The half-life is the time needed for the level to fall by half in the phase considered. `OC1CCCN(c2nc(Nc3ccc4c(c3)CCC4)c3ncn(C4CCCC4)c3n2)C1` (stereo not shown) [Example 1, 1-[9-Cyclopentyl-6-(indan-5-ylamino)-9H-purin-2-yl]-piperidin-3-ol]: the IC50 with A2780 CisR was found to be 1.1 µM; in data set [2] it was 2 µM; at CDK2/cyclin E, 0.58 ± 0.33 µM; in the data set with HCT116, 5.7 µM; with CH1, 1.5 µM; in the data set on HT29 it was 1.8 µM. The IC50 in the data set on CH1DoxR was 1.7 µM; in the data set with KM12, 0.34 µM; in the data set with A2780, 2.2 µM. This compound showed an AUC(0-inf) in the data set “in vivo” of 62500 ng·h/mL. Further, the half-life in the data set “in vivo” was 5.5 h.
As for `COc1ccc(CNc2nc(N3CCCC(O)C3)nc3c2ncn3C2CCCC2)cc1OC` (stereo not shown) [Example 2, 1-[9-Cyclopentyl-6-(3.4-dimethoxy-benzylamino)-9H-purin-2-yl]piperidin-3-ol], the IC50 with A2780 CisR worked out at 14 µM; in data set [2], 4.9 µM; against CDK2/cyclin E it was 1.84 ± 0.31 µM; in the data set with HCT116, 6.1 µM; in the data set with CH1, 0.94 µM; with HT29 it was 4.4 µM. Also, the IC50 with CH1DoxR worked out at 2.4 µM; in the data set on KM12 it was 6.4 µM; in the data set with A2780 it was 0.078 µM. For the same compound, in the data set “in vivo”, the AUC(0-inf) worked out at 19500 ng·h/mL. In the data set “in vivo”, this compound showed a half-life of 4.2 h.
Turning to `CC(C)[C@H](CO)Nc1nc(Nc2cccc([N+](=O)[O-])c2)c2ncn(C(C)C)c2n1` [Example 3, (R)-2-[9-Isopropyl-6-(3-nitro-phenylamino)-9H-purin-2-ylamino]-3-methyl-butan-1-ol], the IC50 was 2.85 µM with A2780 CisR; 2.3 µM in [2]; 0.33 ± 0.45 µM against CDK2/cyclin E; 2.45 µM in the data set with HCT116; 2.3 µM in the data set with CH1; 4.3 µM with HT29. Besides, the IC50 is 1.8 µM with CH1DoxR, 1.05 µM with KM12 and 1.1 µM with A2780.
As to `CC[C@H](CO)Nc1nc(Nc2cccc([N+](=O)[O-])c2)c2ncn(C(C)C)c2n1` [Example 4, (R)-2-[9-Isopropyl-6-(3-nitro-phenlamino)-9H-purin-2-ylamino]-butan-1-ol], the IC50 was found to be 1.7 µM in the data set with A2780 CisR; 1.1 µM in data set [2]; 0.028 ± 0.01 µM at CDK2/cyclin E; 1.2 µM in the data set on HCT116; 1.1 µM in the data set with CH1; 2.1 µM with HT29. The IC50 with CH1DoxR turned out to be 0.56 µM; in the data set with KM12 it was 0.76 µM; in the data set on A2780, 0.245 µM.
`CC[C@H](Nc1nc(NCc2ccccc2)c2ncn(C(C)C)c2n1)[C@@H](C)O` [Example 7 (2R,3S), (2R,3S)-3-(6-Benylamino-9-isopropyl-9H-purin-2-ylamino)-pentan-2-ol]: the IC50 stood at 3.4 µM with A2780 CisR; 1.5 µM in the data set with HCT116; 1.8 µM in the data set on CH1; 5 µM in the data set on HT29; 1.3 µM in the data set with CH1DoxR; 1.9 µM in the data set on KM12. Also, the IC50 in the data set with A2780 was found to be 3.3 µM. The “PK remark: carbinol metabolism” value in [3] was “Blocked carbinol metabolism”.
`CCC(Nc1nc(NCc2ccccc2)c2ncn(C(C)C)c2n1)C(C)O` (stereo not shown) [Example 7]: the IC50 on mouse ERK-2 was > 50 µM and 43 µM and 29 µM; in data set [1], > 50 µM.
Regarding `CCC(O)[C@H](CC)Nc1nc(NCc2ccccc2)c2ncn(C(C)C)c2n1` (stereo partly shown) [Example 10], the IC50 in data set [1] was > 200 µM; with A549, HT29, Saos-2, 20 µM.
For `CC[C@H](Nc1nc(NCc2ccccc2)c2ncn(C(C)C)c2n1)C(O)C(C)C` (stereo partly shown) [Example 12], the values for the IC50 (at mouse ERK-2; in data set [1]) were 88 µM and 83 µM, respectively.
`CC[C@@H](Nc1nc(NCc2ccccc2)c2ncn(C(C)C)c2n1)C(C)(C)O` [Example 15]: the IC50 worked out at 191 µM in [1]; 15 µM in the data set with A549, HT29, Saos-2; 3.7 µM at CDK7/cyclin H; 12 µM on CDK4/cyclin D1.
Taken in the same sequence, the figures for `CC[C@H](Nc1nc(NCc2ccccc2)c2ncn(C(C)C)c2n1)C(C)(C)O` [Example 16, (S)-3-(6-Benzylamino-9-isopropyl-9H-purin-2-ylamino)-2 methyl-pentan-2-ol] were ≥ 200 µM, 10 µM, 2 µM and 8.5 µM.

For the origin of these results see patent US7612079B2, “2,6,9-substituted purine derivatives and their use in the treatment of proliferative disorders” (Cyclacel Limited, priority 2001, dated 2009).
